Values after ≈ are worked out from the molar mass of the structure shown. Like-named read-outs stand apart in the source and are kept apart here.
Experiments:
[1] = system: Klebsiella pneumoniae D11; assay: MIC by serial two-fold agar dilution, K. pneumoniae D11; type: cell-based; conditions: Mueller-Hinton agar
Method: (§1) The minimum inhibitory concentrations (MIC) of Bu-2659A, B, C, D and E were determined for a variety of gram-positive and gram-negative bacteria by the serial two-fold agar dilution method using the Steer's multi-inoculating apparatus. The inoculum was standardized as a 10^4 dilution of an overnight culture of the test organisms in Heart Infusion Broth (Difco). […] Reference antibiotics utilized in these tests included commercially available neomycin as well as its components, neomycins B and C [as used herein, the term "neomycin" means the commercial product containing neomycins B and C at an approximate ratio of 7:3], paromomycin [the commercial product containing >90% of paromomycin I and <10% of paromomycin II] and ribostamycin.

[2] = system: Escherichia coli JR88; assay: MIC, aminoglycoside-resistant E. coli JR88; type: cell-based
Method: as §1

[3] = system: bacteria of Table 10; assay: In vitro activity of Bu-2659 DP-I vs neamine, overall, Table 10; type: cell-based
Method: as §1
The in vitro activity of Bu-2659 DP-I (1-deamino-1-hydroxyneamine) is shown in Table 10 along with that of neamine.

[4] = system: Escherichia coli NIHJ; assay: MIC by serial two-fold agar dilution, E. coli NIHJ; type: cell-based; conditions: Mueller-Hinton agar
Method: as §1

[5] = system: Staphylococcus aureus Smith; assay: MIC by serial two-fold agar dilution, S. aureus Smith; type: cell-based; conditions: Mueller-Hinton agar
Method: as §1

[6] = system: Pseudomonas aeruginosa A9930; assay: MIC by serial two-fold agar dilution, P. aeruginosa A9930; type: cell-based; conditions: Mueller-Hinton agar
Method: as §1

[7] = system: Bacillus subtilis PCI 219; assay: MIC by serial two-fold agar dilution, B. subtilis PCI 219; type: cell-based; conditions: Mueller-Hinton agar
Method: as §1

[8] = system: Proteus mirabilis A9554; assay: MIC by serial two-fold agar dilution, P. mirabilis A9554; type: cell-based; conditions: Mueller-Hinton agar
Method: as §1

[9] = system: Proteus vulgaris A9436; assay: MIC by serial two-fold agar dilution, P. vulgaris A9436; type: cell-based; conditions: Mueller-Hinton agar
Method: as §1

[10] = system: Staphylococcus aureus 209P; assay: MIC by serial two-fold agar dilution, S. aureus 209P; type: cell-based; conditions: Mueller-Hinton agar
Method: as §1

[11] = system: Escherichia coli NR79/W677; assay: MIC, aminoglycoside-resistant E. coli NR79/W677; type: cell-based; conditions: Table 9; inactivating enzyme AAC(6')-I; Mueller-Hinton agar
Method: as §1

[12] = system: Micrococcus flavus D12; assay: MIC by serial two-fold agar dilution, M. flavus D12; type: cell-based; conditions: Table 7; Mueller-Hinton agar
Method: as §1

[13] = system: Pseudomonas aeruginosa A20601; assay: MIC, aminoglycoside-resistant P. aeruginosa A20601; type: cell-based; conditions: Table 9; inactivating enzymes AAC(3)-I, APH(3')-II; Mueller-Hinton agar
Method: as §1

[14] = system: Bacillus brevis IFO 12334; assay: MIC, aminoglycoside-resistant B. brevis IFO 12334; type: cell-based; conditions: Table 9; inactivating enzyme ANT (4'); Mueller-Hinton agar
Method: as §1

[15] = system: Neisseria gonorrhoeae A20143; assay: MIC by serial two-fold agar dilution, N. gonorrhoeae A20143; type: cell-based; conditions: Table 8; GC medium
Method: as §1

[16] = system: Staphylococcus aureus A20239; assay: MIC, aminoglycoside-resistant S. aureus A20239; type: cell-based; conditions: Table 9; inactivating enzyme APH(3')-I,II; Mueller-Hinton agar
Method: as §1

[17] = system: Proteus mirabilis A9906; assay: MIC by serial two-fold agar dilution, P. mirabilis A9906; type: cell-based; conditions: Table 7; Mueller-Hinton agar
Method: as §1

[18] = system: Escherichia coli JR66/W677; assay: MIC, aminoglycoside-resistant E. coli JR66/W677; type: cell-based; conditions: Table 9; inactivating enzymes APH(3')-II, ANT(2"); Mueller-Hinton agar
Method: as §1

[19] = system: Neisseria meningitidis A21496; assay: MIC by serial two-fold agar dilution, N. meningitidis A21496; type: cell-based; conditions: Table 8; GC medium
Method: as §1

[20] = system: Pseudomonas aeruginosa A20896; assay: MIC, aminoglycoside-resistant P. aeruginosa A20896; type: cell-based; conditions: Table 9; inactivating enzyme AAC(3)-II; Mueller-Hinton agar
Method: as §1

[21] = system: Escherichia coli Juhl; assay: Experimental systemic infection in mice, E. coli Juhl; type: in vivo; conditions: im, single treatment, 4 days
Method: (§2) The in vivo activity of Bu-2659A was assessed by experimental systemic infection in mice. The pathogenic bacteria used in the in vivo tests were E. coli Juhl, K. pneumoniae D-11, P. mirabilis A9906, S. aureus Smith and S. pyogenes A20201. Mice were challenged intraperitoneally with approximately 100×LD50 dose of the pathogens in a 5% suspension of hog gastric mucin (American Laboratories, Omaha, Neb.). A single intramuscular treatment with the antibiotic was given immediately after the bacterial challenge. […] Neomycin was comparatively tested as a reference compound. […] In terms of PD50 value Bu-2659A was about one-half as active as neomycin against infections with S. aureus and S. pyogenes.

[22] = system: Micrococcus luteus PCI 1001; assay: MIC by serial two-fold agar dilution, M. luteus PCI 1001; type: cell-based; conditions: Table 7; Mueller-Hinton agar
Method: as §1

[23] = system: Mycobacterium ranae; assay: MIC by serial two-fold agar dilution, M. ranae; type: cell-based; conditions: Table 8; No. 1001 medium
Method: as §1

[24] = system: Escherichia coli JR35/C600; assay: MIC, aminoglycoside-resistant E. coli JR35/C600; type: cell-based; conditions: Table 9; inactivating enzyme APH(3')-I; Mueller-Hinton agar
Method: as §1

[25] = system: Mycobacterium phlei; assay: MIC by serial two-fold agar dilution, M. phlei; type: cell-based; conditions: Table 8; No. 1001 medium
Method: as §1

[26] = system: Staphylococcus aureus D136; assay: MIC by serial two-fold agar dilution, S. aureus D136; type: cell-based; conditions: Table 7; Mueller-Hinton agar
Method: as §1

[27] = system: Proteus morganii A9553; assay: MIC by serial two-fold agar dilution, P. morganii A9553; type: cell-based; conditions: Table 7; Mueller-Hinton agar
Method: as §1

[28] = system: Mycobacterium smegmatis 607; assay: MIC by serial two-fold agar dilution, M. smegmatis 607; type: cell-based; conditions: Table 8; No. 1001 medium
Method: as §1

[29] = system: Staphylococcus aureus Smith; assay: Experimental systemic infection in mice, S. aureus Smith; type: in vivo; conditions: im, single treatment, 4 days
Method: as §2

[30] = system: Escherichia coli Juhl; assay: MIC by serial two-fold agar dilution, E. coli Juhl; type: cell-based; conditions: Table 7; Mueller-Hinton agar
Method: as §1

[31] = system: Streptococcus pyogenes A20201; assay: Experimental systemic infection in mice, S. pyogenes A20201; type: in vivo; conditions: im, single treatment, 4 days
Method: as §2

[32] = system: Streptococcus pneumoniae Type I; assay: MIC by serial two-fold agar dilution, S. pneumoniae Type I; type: cell-based; conditions: Table 8; GC medium
Method: as §1

[33] = system: Escherichia coli A20732; assay: MIC, aminoglycoside-resistant E. coli A20732; type: cell-based; conditions: Table 9; inactivating enzyme ANT(2"); Mueller-Hinton agar
Method: as §1

[34] = system: Streptococcus pyogenes A20201; assay: MIC by serial two-fold agar dilution, S. pyogenes A20201; type: cell-based; conditions: Table 8; GC medium
Method: as §1

[35] = system: Serratia marcescens A20019; assay: MIC by serial two-fold agar dilution, S. marcescens A20019; type: cell-based; conditions: Table 7; Mueller-Hinton agar
Method: as §1

[36] = system: Haemophilus influenzae A9729; assay: MIC by serial two-fold agar dilution, H. influenzae A9729; type: cell-based; conditions: Table 8; GC medium
Method: as §1

[37] = system: Proteus rettgeri A15167; assay: MIC by serial two-fold agar dilution, P. rettgeri A15167; type: cell-based; conditions: Table 7; Mueller-Hinton agar
Method: as §1

[38] = system: Proteus mirabilis A9906; assay: Experimental systemic infection in mice, P. mirabilis A9906; type: in vivo; conditions: im, single treatment, 4 days
Method: as §2

[39] = system: Klebsiella pneumoniae D-11; assay: Experimental systemic infection in mice, K. pneumoniae D-11; type: in vivo; conditions: im, single treatment, 4 days
Method: as §2

[40] = system: Pseudomonas aeruginosa D15; assay: MIC by serial two-fold agar dilution, P. aeruginosa D15; type: cell-based; conditions: Table 7; Mueller-Hinton agar
Method: as §1

[41] = system: Enterobacter cloacae A20364; assay: MIC, aminoglycoside-resistant E. cloacae A20364; type: cell-based; conditions: Table 9; inactivating enzyme APH(3')-I; Mueller-Hinton agar
Method: as §1

[42] = system: Escherichia coli ML 1630; assay: MIC, aminoglycoside-resistant E. coli ML 1630; type: cell-based; conditions: Table 9; inactivating enzyme APH(3')-I; Mueller-Hinton agar
Method: as §1

[43] = Acute toxicity in mice; type: in vivo; conditions: mice
Method: The acute toxicity of Bu-2659A was determined in mice by intravenous, intraperitoneal and subcutaneous routes. Neomycin also was tested for comparison purposes. […] The toxicity of Bu-2659A was approximately 1/3 that of neomycin in terms of LD50 values, thus presenting a potential clinical advantage for Bu-2659A.

[44] = system: Escherichia coli A20107; assay: MIC, aminoglycoside-resistant E. coli A20107; type: cell-based; conditions: Table 9; inactivating enzyme APH(3')-II; Mueller-Hinton agar
Method: as §1

[45] = system: species of Streptococcus and Mycobacterium; assay: Antibacterial activity (MIC), overall, Streptococcus and Mycobacterium, Table 8; type: cell-based
Method: as §1

Compound: NC[C@H]1O[C@H](O[C@H]2[C@H](O)[C@@H](O)[C@H](O)C[C@@H]2N)[C@H](N)[C@@H](O)[C@@H]1O [Bu-2659 DP-I, 1-deamino-1-hydroxyneamine]
- MIC ([1]; Klebsiella pneumoniae, D11, Table 10, read-out: MIC): 200 µg/mL (≈ 619 µM)
- MIC ([2]; Escherichia coli, JR88): 200 µg/mL (≈ 619 µM)
- in vitro activity compared with neamine, in words [3]: much less active than neamine
- MIC ([4]; Escherichia coli, Table 10, read-out: MIC): 200 µg/mL (≈ 619 µM)
- MIC ([5]; Staphylococcus aureus, Table 10, read-out: MIC): 200 µg/mL (≈ 619 µM)
- MIC ([6]; Pseudomonas aeruginosa, A9930, Table 10, read-out: MIC): > 800 µg/mL
- MIC ([7]; Bacillus subtilis, PCI219, Table 10, read-out: MIC): 100 µg/mL (≈ 309 µM)
- MIC ([8]; Proteus mirabilis, A9554, Table 10, read-out: MIC): 800 µg/mL (≈ 2470 µM)
- MIC ([9]; Proteus vulgaris, A9436, Table 10, read-out: MIC): 200 µg/mL (≈ 619 µM)
- MIC ([10]; Staphylococcus aureus, 209P, Table 10, read-out: MIC): 200 µg/mL (≈ 619 µM)

Compound: neomycin
- MIC [11]: 50 µg/mL
- MIC ([1]; Table 7): 0.4 µg/mL
- MIC [12]: 3.1 µg/mL
- MIC [13]: 12.5 µg/mL
- MIC [14]: 25 µg/mL
- MIC ([2]; Table 9, inactivating enzyme AAC(3)-I, Mueller-Hinton agar): 1.6 µg/mL
- MIC [15]: > 400 µg/mL
- MIC [16]: 25 µg/mL
- MIC [17]: 0.8 µg/mL
- MIC [18]: > 100 µg/mL
- MIC [19]: 400 µg/mL
- MIC ([4]; Table 7): 1.6 µg/mL
- MIC [20]: > 100 µg/mL
- PD50 [21]: 3.1 mg/kg
- MIC ([5]; Table 7): 0.8 µg/mL
- MIC [22]: 0.8 µg/mL
- MIC [23]: 0.4 µg/mL
- MIC [24]: > 100 µg/mL
- MIC [25]: 0.2 µg/mL
- MIC [26]: 0.8 µg/mL
- MIC [27]: 3.1 µg/mL
- MIC [28]: 0.4 µg/mL
- MIC ([6]; Table 7): 3.1 µg/mL
- PD50 [29]: 0.31 mg/kg
- MIC [30]: 3.1 µg/mL
- PD50 [31]: 50 mg/kg
- MIC [32]: 25 µg/mL
- MIC [33]: 0.8 µg/mL
- MIC [34]: 12.5 µg/mL
- MIC [35]: 1.6 µg/mL
- MIC ([7]; Table 7): < 0.05 µg/mL
- MIC [36]: 400 µg/mL
- MIC ([8]; Table 7): 0.8 µg/mL
- MIC [37]: 1.6 µg/mL
- PD50 [38]: 1.8 mg/kg
- PD50 [39]: 0.9 mg/kg
- MIC [40]: 3.1 µg/mL
- MIC ([9]; Table 7): 0.8 µg/mL
- MIC [41]: > 100 µg/mL
- MIC [42]: > 100 µg/mL
- LD50 ([43]; intraperitoneal): 180 mg/kg
- LD50 ([43]; intravenous): 34 mg/kg
- LD50 ([43]; subcutaneous): 280 mg/kg
- MIC [44]: 100 µg/mL
- MIC ([10]; Table 7): 0.4 µg/mL
- activity against Streptococcus and Mycobacterium, in words [45]: equivalent activity
